Data from patent US20260048047A1, “SMALL-MOLECULE ACTIVATORS OF MYCOBACTERIUM TUBERCULOSIS ADENYLYL CYCLASE” (priority 2022, published 2026).

Tested on: M. tuberculosis
Assay: Extracellular activity against M. tuberculosis in cholesterol media (Alamar Blue reduction assay)
Assay type: cell-based, Mycobacterium tuberculosis
Conditions: Mycobacterium tuberculosis, 240 h, 7H12-Cholesterol media, 10 days; read-out: Cholesterol broth: alamar blue--EC50

Compound	EC50 [µM]
Cc1noc(CC(=O)N2CCC(c3noc(-c4ccc(F)cc4)n3)CC2)n1 [Compound 53, 1-(4-(5-(4-fluorophenyl)-1,2,4-oxadiazol-3-yl)piperidin-1-yl)-2-(3-methyl-1,2,4-oxadiazol-5-yl)ethan-1-one]	> 10
Cc1noc(CC(=O)N2CCC(O)(c3nc(-c4ccc(F)cc4)no3)CC2)n1 [Compound 54, 1-(4-(3-(4-fluorophenyl)-1,2,4-oxadiazol-5-yl)-4-hydroxypiperidin-1-yl)-2-(3-methyl-1,2,4-oxadiazol-5-yl)ethan-1-one]	> 10
Cc1nocc1CC(=O)N1CCC(c2nc(C3CCCCC3)no2)CC1 [Compound 55, 1-(4-(3-cyclohexyl-1,2,4-oxadiazol-5-yl)piperidin-1-yl)-2-(3-methylisoxazol-4-yl)ethan-1-one]	> 25
Cc1nocc1CC(=O)N1CCC(n2nnc(C3CCCCC3)n2)CC1 [Compound 56, 1-(4-(5-cyclohexyl-2H-tetrazol-2-yl)piperidin-1-yl)-2-(3-methylisoxazol-4-yl)ethan-1-one]	> 25
Cc1nocc1CC(=O)N1CCC(c2nc(-c3ccc(Cl)c(Cl)c3)no2)CC1 [Compound 57, 1-(4-(3-(3,4-dichlorophenyl)-1,2,4-oxadiazol-5-yl)piperidin-1-yl)-2-(3-methylisoxazol-4-yl)ethan-1-one]	0.691
Cc1nocc1CC(=O)N1CCC(c2nc(-c3ccc(F)cc3)no2)CC1 [Compound 58, 1-(4-(3-(4-fluorophenyl)-1,2,4-oxadiazol-5-yl)piperidin-1-yl)-2-(3-methylisoxazol-4-yl)ethan-1-one]	2.15
Cc1nonc1CC(=O)N1CCC(n2cc(C(=O)N3CCOCC3)nn2)CC1 [Compound 60, 2-(4-methyl-1,2,5-oxadiazol-3-yl)-1-(4-(4-(morpholine-4-carbonyl)-1H-1,2,3-triazol-1-yl)piperidin-1-yl)ethan-1-one]	> 10
Cc1nonc1CC(=O)N1CCC(c2nc(C3CC3)no2)CC1 [Compound 61, 1-(4-(3-cyclopropyl-1,2,4-oxadiazol-5-yl)piperidin-1-yl)-2-(4-methyl-1,2,5-oxadiazol-3-yl)ethan-1-one]	> 10
Cc1nonc1CC(=O)N1CCC(n2nnc(C3CC3)n2)CC1 [Compound 62, 1-(4-(5-cyclopropyl-2H-tetrazol-2-yl)piperidin-1-yl)-2-(4-methyl-1,2,5-oxadiazol-3-yl)ethan-1-one]	≥ 10
Cc1nonc1CC(=O)N1CCC(c2nc(C3CC4CCC3C4)no2)CC1 (stereo not shown) [Compound 64, 1-(4-(3-(bicyclo[2.2.1]heptan-2-yl)-1,2,4-oxadiazol-5-yl)piperidin-1-yl)-2-(4-methyl-1,2,5-oxadiazol-3-yl)ethan-1-one]	0.447
Cc1nonc1CC(=O)N1CCC(c2noc(C3CC34CCC4)n2)CC1 (stereo not shown) [Compound 65, 2-(4-methyl-1,2,5-oxadiazol-3-yl)-1-(4-(5-(spiro[2.3]hexan-1-yl)-1,2,4-oxadiazol-3-yl)piperidin-1-yl)ethan-1-one]	15
Cc1nonc1CC(=O)N1CCC(c2nc(C3CCC3)no2)CC1 [Compound 66, 1-(4-(3-cyclobutyl-1,2,4-oxadiazol-5-yl)piperidin-1-yl)-2-(4-methyl-1,2,5-oxadiazol-3-yl)ethan-1-one]	> 25
Cc1nonc1CC(=O)N1CCC(c2nc(C3CCC4(CC3)OCCO4)no2)CC1 [Compound 67, 1-(4-(3-(1,4-dioxaspiro[4.5]decan-8-yl)-1,2,4-oxadiazol-5-yl)piperidin-1-yl)-2-(4-methyl-1,2,5-oxadiazol-3-yl)ethan-1-one]	> 10
Cc1nonc1CC(=O)N1CCC(c2nc(C3CCC4(CC3)CC4)no2)CC1 [Compound 68, 2-(4-methyl-1,2,5-oxadiazol-3-yl)-1-(4-(3-(spiro[2.5]octan-6-yl)-1,2,4-oxadiazol-5-yl)piperidin-1-yl)ethan-1-one]	1.86
Cc1nonc1CC(=O)N1CCC(c2noc(C3CCC4(CC3)CC4)n2)CC1 [Compound 69, 2-(4-methyl-1,2,5-oxadiazol-3-yl)-1-(4-(5-(spiro[2.5]octan-6-yl)-1,2,4-oxadiazol-3-yl)piperidin-1-yl)ethan-1-one]	> 25
Cc1nonc1CC(=O)N1CCC(c2nc(C3CCCC3)no2)CC1 [Compound 70, 1-(4-(3-cyclopentyl-1,2,4-oxadiazol-5-yl)piperidin-1-yl)-2-(4-methyl-1,2,5-oxadiazol-3-yl)ethan-1-one]	3.68
Cc1nonc1CC(=O)N1CCC(n2nnc(C3CCCC3)n2)CC1 [Compound 71, 1-(4-(5-cyclopentyl-2H-tetrazol-2-yl)piperidin-1-yl)-2-(4-methyl-1,2,5-oxadiazol-3-yl)ethan-1-one]	> 25
Cc1nonc1CC(=O)N1CCC(c2nc(C3CCCC4CC43)no2)CC1 (stereo not shown) [Compound 72, 1-(4-(3-(bicyclo[4.1.0]heptan-2-yl)-1,2,4-oxadiazol-5-yl)piperidin-1-yl)-2-(4-methyl-1,2,5-oxadiazol-3-yl)ethan-1-one]	> 10
Cc1nonc1CC(=O)N1CCC(c2nc(C3CCCCC3)no2)CC1 [Compound 73, 1-(4-(3-cyclohexyl-1,2,4-oxadiazol-5-yl)piperidin-1-yl)-2-(4-methyl-1,2,5-oxadiazol-3-yl)ethan-1-one]	0.674

Compound	EC50 [µM]
Cc1nonc1CC(=O)N1CCC(n2nnc(C3CCCCC3)n2)CC1 [Compound 74, 1-(4-(5-cyclohexyl-2H-tetrazol-2-yl)piperidin-1-yl)-2-(4-methyl-1,2,5-oxadiazol-3-yl)ethan-1-one]	2.07
Cc1nonc1CC(=O)N1CCC(O)(c2nc(C3CCCCC3)no2)CC1 [Compound 75, 1-(4-(3-cyclohexyl-1,2,4-oxadiazol-5-yl)-4-hydroxypiperidin-1-yl)-2-(4-methyl-1,2,5-oxadiazol-3-yl)ethan-1-one]	> 10
Cc1nonc1CC(=O)N1CCC(c2nc(C3CCOCC3)no2)CC1 [Compound 76, 2-(4-methyl-1,2,5-oxadiazol-3-yl)-1-(4-(3-(tetrahydro-2H-pyran-4-yl)-1,2,4-oxadiazol-5-yl)piperidin-1-yl)ethan-1-one]	> 10
Cc1nonc1CC(=O)N1CCC(c2noc(C34CCC(CC3)C4)n2)CC1 [Compound 77, 1-(4-(5-(bicyclo[2.2.1]heptan-1-yl)-1,2,4-oxadiazol-3-yl)piperidin-1-yl)-2-(4-methyl-1,2,5-oxadiazol-3-yl)ethan-1-one]	> 25
Cc1nonc1CC(=O)N1CCC(c2nc(C34CCC(CC3)C4)no2)CC1 [Compound 78, 1-(4-(3-(bicyclo[2.2.1]heptan-1-yl)-1,2,4-oxadiazol-5-yl)piperidin-1-yl)-2-(4-methyl-1,2,5-oxadiazol-3-yl)ethan-1-one]	3.76
Cc1nonc1CC(=O)N1CCC(n2ccc(-c3ccccc3)n2)CC1 [Compound 79, 2-(4-methyl-1,2,5-oxadiazol-3-yl)-1-(4-(3-phenyl-1H-pyrazol-1-yl)piperidin-1-yl)ethan-1-one]	> 10
Cc1nonc1CC(=O)N1CCC(n2nnc(-c3ccccc3)n2)CC1 [Compound 80, 2-(4-methyl-1,2,5-oxadiazol-3-yl)-1-(4-(5-phenyl-2H-tetrazol-2-yl)piperidin-1-yl)ethan-1-one, reference compound]	1.58
Cc1nnn(C2CCN(C(=O)Cc3nonc3C)CC2)n1 [Compound 81, 2-(4-methyl-1,2,5-oxadiazol-3-yl)-1-(4-(5-methyl-2H-tetrazol-2-yl)piperidin-1-yl)ethan-1-one]	> 10
Cc1noc(C2CCN(C(=O)Cc3nonc3C)CC2)n1 [Compound 82, 1-(4-(3-methyl-1,2,4-oxadiazol-5-yl)piperidin-1-yl)-2-(4-methyl-1,2,5-oxadiazol-3-yl)ethan-1-one]	> 10
Cc1nonc1CC(=O)N1CCC(c2nc(C(C)C)no2)CC1 [Compound 83, 1-(4-(3-isopropyl-1,2,4-oxadiazol-5-yl)piperidin-1-yl)-2-(4-methyl-1,2,5-oxadiazol-3-yl)ethan-1-one]	> 10
Cc1nonc1CC(=O)N1CCC(c2nc(C3(C)CCCCC3)no2)CC1 [Compound 84, 2-(4-methyl-1,2,5-oxadiazol-3-yl)-1-(4-(3-(1-methylcyclohexyl)-1,2,4-oxadiazol-5-yl)piperidin-1-yl)ethan-1-one]	2.13
Cc1nonc1CC(=O)N1CCC(c2nc(C3(C)COC3)no2)CC1 [Compound 85, 2-(4-methyl-1,2,5-oxadiazol-3-yl)-1-(4-(3-(3-methyloxetan-3-yl)-1,2,4-oxadiazol-5-yl)piperidin-1-yl)ethan-1-one]	> 10
Cc1nonc1CC(=O)N1CCC(c2nc(C3CC3(C)C)no2)CC1 (stereo not shown) [Compound 86, 1-(4-(3-(2,2-dimethylcyclopropyl)-1,2,4-oxadiazol-5-yl)piperidin-1-yl)-2-(4-methyl-1,2,5-oxadiazol-3-yl)ethan-1-one]	1.81
Cc1nonc1CC(=O)N1CCC(c2nc(C3CCC(C)(C)C3)no2)CC1 (stereo not shown) [Compound 87, 1-(4-(3-(3,3-dimethylcyclopentyl)-1,2,4-oxadiazol-5-yl)piperidin-1-yl)-2-(4-methyl-1,2,5-oxadiazol-3-yl)ethan-1-one]	0.249
Cc1nonc1CC(=O)N1CCC(c2nc(C3CCC(C)(C)CC3)no2)CC1 [Compound 88, 1-(4-(3-(4,4-dimethylcyclohexyl)-1,2,4-oxadiazol-5-yl)piperidin-1-yl)-2-(4-methyl-1,2,5-oxadiazol-3-yl)ethan-1-one]	0.181
Cc1nonc1CC(=O)N1CCC(c2nc(C3CCCC(C)(C)C3)no2)CC1 (stereo not shown) [Compound 89, 1-(4-(3-(3,3-dimethylcyclohexyl)-1,2,4-oxadiazol-5-yl)piperidin-1-yl)-2-(4-methyl-1,2,5-oxadiazol-3-yl)ethan-1-one]	0.512
Cc1nonc1CC(=O)N1CCC(c2noc(C34CC(C)(C3)C4)n2)CC1 [Compound 90, 2-(4-methyl-1,2,5-oxadiazol-3-yl)-1-(4-(5-(3-methylbicyclo[1.1.1]pentan-1-yl)-1,2,4-oxadiazol-3-yl)piperidin-1-yl)ethan-1-one]	2.05
COC(C)c1noc(C2CCN(C(=O)Cc3nonc3C)CC2)n1 (stereo not shown) [Compound 91, 1-(4-(3-(1-methoxyethyl)-1,2,4-oxadiazol-5-yl)piperidin-1-yl)-2-(4-methyl-1,2,5-oxadiazol-3-yl)ethan-1-one]	> 10
